From patent US20250197428A1, “INHIBITORS OF KIF18A AND USES THEREOF” (ACCENT THERAPEUTICS, INC., priority 2022, published 2025)
Like-named read-outs stand apart in the source and are kept apart here.

How the values were obtained:
KIF18A = KIF18A (Homo sapiens (Human), UniProt Q8NI77); test: KIF18A Biochemical Assay (ATPase, ADP-Glo)
OVCAR-3 cells = test: In vitro anti-proliferative activity assay in cancer cell line OVCAR-3 (CellTiter-Glo, 4- or 7-day); assay type: cell-based; conditions: Homo sapiens, read-out: OVCAR-3 cellular antiproliferation assay IC50
[1] = Caco-2 permeation assay, bidirectional permeability; assay type: in vitro ADME; conditions: human, Caco-2, pH 7.4, 5 μM, Papp(B-A)/Papp(A-B)
Method: 1. Caco-2 Permeation Assay: Evaluation of the Bidirectional Permeabilities of Compounds.
Samples were analyzed through LC/MS/MS for estimating the apparent permeability coefficients (Papp) of compounds across Caco-2 cell monolayers. Caco-2 cells (American Type Culture Collection) were incubated and seeded onto HTS Transwell-96 Well Permeable Supports (Corning Corporation) for 14 days using a cell medium consisting of Dulbecco's Modified Eagle's Medium (DMEM) with high glucose and L-glutamine supplemented with 10% FBS, 1× penicillin-streptomycin mixture and 1×non-essential amino acids (NEAA). Cell monolayer integrity was measured using an automated tissue resistance measuring system (World Precision Instruments). Stock solutions of compounds and control compounds in DMSO were diluted with HBSS (10 mM HEPES, pH 7.4) to reach a final concentration of 5 μM with a final concentration of DMSO <0.1%. HBSS was then removed after 30 minutes of preincubation, and 75 μL of test compound was added to the apical compartment of the Transwell insert. The basolateral compartment was filled with 235 μL of HBSS (10 mM HEPES, pH 7.4) containing 2% BSA. Rate of drug transport in the basolateral to apical direction was obtained by adding 235 μL of test compound to the receiver plate wells (basolateral compartment) and filling with 75 μL of HBSS (10 mM HEPES, pH 7.4) containing 2% BSA. Time 0 samples were prepared by transferring 25 μL of 5 μM working solution to wells of the 96-deepwell plate containing 25 μL HBSS (10 mM HEPES and 2% BSA, pH 7.4), followed by the addition 200 μL of cold methanol containing appropriate internal standards (100 nM alprazolam, 200 nM labetalol, 200 nM caffeine and 200 nM diclofenac). After incubating at 37° C. for 2 h, 25 μL samples from donor sides (apical compartment) were transferred to a 96-well plate containing 25 μL HBSS (10 mM HEPES and 2% BSA, pH 7.4). 25 μL samples from receiver sides (basolateral compartment) were removed and transferred to a new plate containing 25 μL HBSS (10 mM HEPES, pH 7.4). 200 μL of cold methanol containing internal standards (100 nM alprazolam, 200 nM labetalol, 200 nM caffeine and 200 nM diclofenac) was added to terminate the reaction. Samples were vortexed for 5 minutes and then centrifuged at 3,220 g for 40 minutes. An aliquot of 100 μL of the supernatant is mixed with 100 μL of ultra-pure water for LC-MS/MS analysis. All incubations are performed in duplicate. Solutions were discarded from the transwell plate. 100 μL Lucifer Yellow solution (100 μM in HBSS) was added to each well of transwell insert and 300 μL of HBSS to each well of receiver. After incubating at 37° C. for 30 minutes, 80 μL was aliquotted from each well of apical and basolateral sides to a solid black plate. The plate was then read with Tecan Infinite™ M 200 (Excitation/Emission wavelength […]).
All calculations were carried out using Microsoft Excel. Peak areas were determined from extracted ion chromatograms. The leakage of Lucifer Yellow, in unit of percentage (%), can be calculated using the following equation: […]
LY leakage of <1% is acceptable to indicate the well-qualified Caco-2 monolayers. The apparent permeability coefficient (Papp), in units of centimeter per second, can be calculated for Caco-2 drug transport assays using the following equation: […]
Where VA is the volume (in mL) in the receiver well (0.235 mL for Ap→Bl flux and 0.075 mL for Bl→Ap flux), Area is the surface area of the membrane (0.143 cm^2 for HTS Transwell-96 Well Permeable Supports), and time is the total transport time in seconds. The efflux ratio can be determined using the following equation: […]
Where Papp (B-A) indicates the apparent permeability coefficient in basolateral to apical direction, and Papp (A-B) indicates the apparent permeability coefficient in apical to basolateral direction.
The recovery can be determined using the following equation: […]

Chain of KIF18A (Q8NI77 1-367): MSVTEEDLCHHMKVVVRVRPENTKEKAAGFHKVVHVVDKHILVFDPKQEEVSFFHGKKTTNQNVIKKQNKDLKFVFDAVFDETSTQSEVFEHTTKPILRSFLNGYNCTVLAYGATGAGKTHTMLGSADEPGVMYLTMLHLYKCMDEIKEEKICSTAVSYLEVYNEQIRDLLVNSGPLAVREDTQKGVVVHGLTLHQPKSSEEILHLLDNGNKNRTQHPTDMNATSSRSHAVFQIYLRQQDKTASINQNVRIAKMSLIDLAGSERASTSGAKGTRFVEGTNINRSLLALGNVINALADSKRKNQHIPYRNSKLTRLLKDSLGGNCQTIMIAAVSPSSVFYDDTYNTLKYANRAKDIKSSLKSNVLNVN
Chain of KIF18A (P02550 whole entry partner): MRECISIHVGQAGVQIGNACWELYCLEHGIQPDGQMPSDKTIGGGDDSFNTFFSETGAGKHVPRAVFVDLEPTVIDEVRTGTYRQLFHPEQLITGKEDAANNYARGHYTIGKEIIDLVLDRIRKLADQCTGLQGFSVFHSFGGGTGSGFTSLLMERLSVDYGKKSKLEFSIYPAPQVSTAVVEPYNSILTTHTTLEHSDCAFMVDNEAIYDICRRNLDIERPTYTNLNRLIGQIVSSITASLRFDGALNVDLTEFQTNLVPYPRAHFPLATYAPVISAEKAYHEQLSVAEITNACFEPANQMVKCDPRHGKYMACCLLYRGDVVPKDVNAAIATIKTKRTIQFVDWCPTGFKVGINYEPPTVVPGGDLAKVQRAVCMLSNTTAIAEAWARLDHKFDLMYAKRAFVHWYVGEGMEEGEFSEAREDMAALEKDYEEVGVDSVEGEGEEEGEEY
Chain of KIF18A (P02554 whole entry partner): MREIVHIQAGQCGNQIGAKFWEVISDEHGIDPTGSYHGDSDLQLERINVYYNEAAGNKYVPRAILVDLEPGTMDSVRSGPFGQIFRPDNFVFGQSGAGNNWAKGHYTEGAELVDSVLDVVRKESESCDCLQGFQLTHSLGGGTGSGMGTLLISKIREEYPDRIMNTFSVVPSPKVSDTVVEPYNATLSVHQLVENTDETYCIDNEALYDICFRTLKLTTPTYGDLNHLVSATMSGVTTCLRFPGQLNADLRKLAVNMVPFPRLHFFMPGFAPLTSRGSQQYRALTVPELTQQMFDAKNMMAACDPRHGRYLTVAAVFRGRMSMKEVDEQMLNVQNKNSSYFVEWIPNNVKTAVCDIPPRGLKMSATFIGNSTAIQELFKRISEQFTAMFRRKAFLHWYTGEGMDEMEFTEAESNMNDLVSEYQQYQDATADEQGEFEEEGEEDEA

| SMILES | IC50 (KIF18A) | IC50 (OVCAR-3 cells; OVCAR-3, 168 h, 7-day assay) | efflux ratio at 2 h, 5 μM [1] | IC50 (OVCAR-3 cells; OVCAR-3, 96 h, 4-day assay) |
| --- | --- | --- | --- | --- |
| C[Si]1(C)CCN(c2cc(NS(=O)(=O)CCO)ccc2C(=O)Nc2cccc(OC[C@@H](O)C(F)(F)F)n2)CC1 [Example 121] | < 100 nM | < 100 nM | < 10 | – |
| C[Si]1(C)CCN(c2cc(NS(=O)(=O)CCO)ccc2C(=O)Nc2cccc(OCC(O)C(F)(F)F)n2)CC1 (stereo not drawn) [Example 119] | < 100 nM | < 100 nM | < 10 | – |
| COC[C@@]12CCN(c3cc(NS(=O)(=O)CCO)ccc3C(=O)Nc3cc(C)nc(N4CCC(F)(F)CC4)n3)C[C@@H]1C2 (single isomer, unassigned) [Example 49b] | < 100 nM | < 100 nM | < 10 | – |
| Cc1cc(NC(=O)c2ccc(NS(=O)(=O)CCO)cc2N2CC[Si](C)(C)CC2)nc(N2CCOC(F)(F)C2)n1 [Example 115] | < 100 nM | 100 to 500 nM | ≥ 10 | – |
| CC(C)(C)NS(=O)(=O)c1cccc(NC(=O)c2ccc(NS(=O)(=O)C(C)(C)C)cc2N2CC[Si](C)(C)CC2)c1 [Example 4, N-(3-(N-(tert-butyl)sulfamoyl)phenyl)-2-(4,4-dimethyl-1,4-azasilinan-1-yl)-4-((1,1-dimethylethyl)sulfonamido)benzamide] | 500 to 1000 nM | – | < 10 | 100 to 500 nM |
| CC1CN(c2nccc(NC(=O)c3ccc(NS(=O)(=O)CCO)cc3N3CC[Si](C)(C)CC3)n2)CCO1 (stereo not drawn) [Example 11] | < 100 nM | – | < 10 | < 100 nM |
| Cc1cc(NC(=O)c2ccc(NS(=O)(=O)[C@@H](C)CO)cc2N2CC[Si](C)(C)CC2)nc(N2CCC(F)(F)CC2)n1 [Example 112] | < 100 nM | 100 to 500 nM | ≥ 10 | – |
| C[Si]1(C)CCN(c2cc(NS(=O)(=O)CCO)ccc2C(=O)Nc2ccnc(N3CCC(F)(F)CC3)c2)CC1 [Example 7, N-(2-(4,4-difluoropiperidin-1-yl)pyridin-4-yl)-2-(4,4-dimethyl-1,4-azasilinan-1-yl)-4-((2-hydroxyethyl)sulfonamido)benzamide] | < 100 nM | – | ≥ 10 | < 100 nM |
| Cc1cc(NC(=O)c2ccc(NS(C)(=O)=O)cc2N2CC[Si](C)(C)CC2)nc(N2CC(F)(F)C2)c1 [Example 20] | 100 to 500 nM | – | < 10 | 100 to 500 nM |
| Cc1cc(NC(=O)c2ccc(NS(=O)(=O)CCO)cc2N2CC[Si](C)(C)CC2)nc(N2CCC(F)(F)CC2)c1 [Example 8, N-(6-(4,4-difluoropiperidin-1-yl)-4-methylpyridin-2-yl)-2-(4,4-dimethyl-1,4-azasilinan-1-yl)-4-((2-hydroxyethyl)sulfonamido)benzamide] | 100 to 500 nM | – | < 10 | < 100 nM |
| Cc1cc(NC(=O)c2ccc(NS(=O)(=O)CCO)cc2N2CCC3CC3C2)nc(N2CCC(F)(F)CC2)n1 (stereo not drawn) [Example 34] | < 100 nM | – | ≥ 10 | 100 to 500 nM |
| CC(C)(C)NS(=O)(=O)c1cccc(NC(=O)c2ccc(NS(=O)(=O)CCO)cc2N2CC[Si](C)(C)CC2)n1 [Example 98] | < 100 nM | – | < 10 | < 100 nM |
| Cc1cc(NC(=O)c2ccc(NS(=O)(=O)CCO)cc2N2CC[Si](C)(C)CC2)nc(N2CCOC3(CC3)C2)n1 [Example 102] | < 100 nM | < 100 nM | ≥ 10 | – |
| C[Si]1(C)CCN(c2cc(NS(C)(=O)=O)ccc2C(=O)Nc2cccc(OC[C@@H](O)C(F)(F)F)n2)CC1 [Example 127] | < 100 nM | < 100 nM | < 10 | – |
| Cc1cc(NC(=O)c2ccc(NS(=O)(=O)CCO)cc2N2CC[Si](C)(C)CC2)nc(N2CCC3(CC3)C2)n1 [Example 21] | 100 to 500 nM | – | < 10 | 100 to 500 nM |
| Cc1cc(NC(=O)c2ccc(NS(=O)(=O)CCO)nc2N2CC[Si](C)(C)CC2)nc(N2CCC(F)(F)CC2)n1 [Example 109] | < 100 nM | 500 to 1000 nM | < 10 | – |
| O=C(Nc1ccnc(N2CCC(F)(F)CC2)n1)c1c(F)cc(NS(=O)(=O)CCO)cc1N1CC[C@@]2(C(F)F)C[C@H]2C1 [Example 70] | < 100 nM | < 100 nM | ≥ 10 | – |
| C[Si]1(C)CCN(c2cc(NS(=O)(=O)CCO)ccc2C(=O)Nc2ccnc(OCCC(F)(F)F)n2)CC1 [Example 10] | < 100 nM | – | ≥ 10 | 500 to 1000 nM |
| O=C(Nc1cccc(N2CCC(F)(F)CC2)n1)c1ccc(NS(=O)(=O)CCO)cc1N1CC[C@@]2(C(F)F)C[C@H]2C1 [Example 66] | < 100 nM | < 100 nM | < 10 | – |
| Cc1cc(NC(=O)c2ccc(NS(=O)(=O)N(C)CCO)cc2N2CC[Si](C)(C)CC2)nc(N2CCC(F)(F)CC2)n1 [Example 134] | < 100 nM | 100 to 500 nM | < 10 | – |
| Cc1cc(NC(=O)c2ccc(NS(=O)(=O)CCO)cc2N2CC[Si](C)(C)CC2)nc(N2CCOCC2)c1 [Example 5, 2-(4,4-dimethyl-1,4-azasilinan-1-yl)-4-((2-hydroxyethyl)sulfonamido)-N-(4-methyl-6-morpholinopyridin-2-yl)benzamide] | < 100 nM | – | < 10 | < 100 nM |
| Cc1cc(NC(=O)c2ccc(NS(=O)(=O)CCO)cc2N2CC[C@]3(C(F)F)C[C@@H]3C2)nc(N2CCC(F)(F)CC2)n1 [Example 58] | < 100 nM | < 100 nM | ≥ 10 | – |
| C[Si]1(C)CCN(c2cc(NS(=O)(=O)CCO)ccc2C(=O)Nc2cccc(N3CCC(F)(F)CC3)c2)CC1 [Example 6, N-(3-(4,4-difluoropiperidin-1-yl)phenyl)-2-(4,4-dimethyl-1,4-azasilinan-1-yl)-4-((2-hydroxyethyl)sulfonamido)benzamide] | < 100 nM | – | < 10 | < 100 nM |
| Cc1cc(NC(=O)c2c(F)cc(NS(=O)(=O)CCO)cc2N2CC[Si](C)(C)CC2)nc(N2CCC(F)(F)CC2)n1 [Example 110] | < 100 nM | < 100 nM | < 10 | – |
| O=C(Nc1cccc(N2CCC(F)(F)CC2)n1)c1c(F)cc(NS(=O)(=O)CCO)cc1N1CC[C@@]2(C(F)F)C[C@H]2C1 [Example 84] | < 100 nM | 100 to 500 nM | < 10 | – |
| Cc1cc(NC(=O)c2ccc(NS(=O)(=O)NCCO)cc2N2CC[Si](C)(C)CC2)nc(N2CCC(F)(F)CC2)n1 [Example 117] | 100 to 500 nM | 100 to 500 nM | < 10 | – |
| Cc1cc(NC(=O)c2ccc(NS(=O)(=O)NCCO)cc2N2CC[C@]3(C(F)F)C[C@@H]3C2)nc(N2CCC(F)(F)CC2)n1 [Example 56] | < 100 nM | 100 to 500 nM | ≥ 10 | – |
| CC(CO)S(=O)(=O)Nc1ccc(C(=O)Nc2cccc(OCCC(F)(F)F)n2)c(N2CC[Si](C)(C)CC2)c1 (stereo not drawn) [Example 113] | < 100 nM | 100 to 500 nM | < 10 | – |
| Cc1cc(NC(=O)c2ccc(NS(C)(=O)=O)cc2N2CC[C@]3(C(F)F)C[C@@H]3C2)nc(N2CCC(F)(F)CC2)n1 [Example 54] | < 100 nM | 100 to 500 nM | < 10 | – |
